Source: US9284423B2, “Crosslinkable composition crosslinkable by real michael addition (RMA) reaction” (NUPLEX RESINS B.V., priority 2011, dated 2016)

Assays:
[1] = Determination of Michael addition reactivity (Example 12): loss of X-H component in butyl acrylate/methanol at room temperature, by back-titration (GC for dimethylmalonate); assay type: physicochemical; conditions: for Relative conversion rates (relative Michael addition reactivity: initial increase in % conversion, per minute): with strong base, same method as for succinimide; for Succinimide remaining (%): strong base (tetrabutylammonium hydroxide) added, % relative to theoretical level
Experimental: Subsequently, the concentration of succinimide is determined as a function of time by taking samples, neutralizing with a known excess of HCl in water, and backtitration with a KOH solution. […] Succinimide concentration is expressed as % relative to the theoretical level based on used amounts.

[2] = pKa defined in aqueous environment; cited from earlier work
[3] = butyl acrylate/methanol, room temperature

Row | SMILES | Relative conversion rates (relative Michael addition reactivity: initial increase in % conversion, per minute) [1, 3] | pKa [2] | further results
1 | c1nc[nH]n1 [1,2,4-triazole] | 0.91 % conversion, per minute | – | –
2 | CC1(C)NC(=O)NC1=O [5,5-dimethylhydantoin] | 0.03 % conversion, per minute | 10.2 | –
3 | c1ccc2[nH]nnc2c1 [benzotriazole] | 0.29 % conversion, per minute | 8.2 | –
4 | CCOC(=O)CC(=O)OCC [diethylmalonate] | – | 13.0 | –
5 | O=C1Nc2ccccc2C1=O [isatine] | – | 10.3 | –
6 | C[N+](=O)[O-] [nitromethane] | – | 10.2 | –
7 | O=C1CCC(=O)N1 [succinimide] | 0.33 % conversion, per minute | – | Succinimide acidic protons consumed ([1]; in about an hour, [succinimide]/[base]=5): 25%; Succinimide remaining (%) ([1]; time 3 min, [succinimide]/[base]=5, butyl acrylate/methanol, room temperature): 99%; Succinimide remaining (%) ([1]; time 30 min, [succinimide]/[base]=5, butyl acrylate/methanol, room temperature): 87%; Succinimide remaining (%) ([1]; time 60 min, [succinimide]/[base]=5, butyl acrylate/methanol, room temperature): 77%; Succinimide remaining (%) ([1]; time 120 min, [succinimide]/[base]=5, butyl acrylate/methanol, room temperature): 60%; Succinimide remaining (%) ([1]; time 180 min, [succinimide]/[base]=5, butyl acrylate/methanol, room temperature): 48%; Loss of succinimide N-H without base initiation ([1]; without base, butyl acrylate/methanol, room temperature, two weeks): no significant loss
8 | O=c1cc[nH]c(=O)[nH]1 [uracil] | – | 9.9 | –
